Assay results from ChEMBL document CHEMBL1201862, “PubChem BioAssay data set” (2004).
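These data come from cells grown in 96-well plates and exposed to compound for 48 hours at five concentrations. GI50 is the concentration that inhibits growth by half.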 Active and inactive are the calls of the source. Cut-off read from the data, not from the text of the source: active = GI50 up to about 1.1 µM and inactive = higher.

Key:
Assay in all cases: DTP human tumour cell line panel, 48 h
HCT-116 = test system: HCT-116
NCI-H522 = test system: NCI-H522
OVCAR-5 = test system: OVCAR-5
MOLT-4 = test system: MOLT-4
SK-OV-3 = test system: SK-OV-3
TK-10 = test system: TK-10
K562 = test system: K562
HL-60 = test system: HL-60
ACHN = test system: ACHN
KM12 = test system: KM12
HOP-62 = test system: HOP-62
Malme-3M = test system: Malme-3M
LOX IMVI = test system: LOX IMVI
RXF 393 = test system: RXF 393
OVCAR-8 = test system: OVCAR-8
HOP-92 = test system: HOP-92
UACC-257 = test system: UACC-257
CAKI-1 = test system: CAKI-1

Measured: GI50

N#Cc1c(-c2ccco2)cc(-c2ccccc2)nc1O
inactive: HCT-116 > 100 µM | NCI-H522 > 100 µM | OVCAR-5 > 100 µM | MOLT-4 > 100 µM | SK-OV-3 > 100 µM | TK-10 > 100 µM | K562 > 100 µM | HL-60 > 100 µM | ACHN > 100 µM | KM12 > 100 µM | HOP-62 > 100 µM | Malme-3M > 100 µM | LOX IMVI > 100 µM | RXF 393 > 100 µM | OVCAR-8 > 100 µM | HOP-92 > 100 µM | UACC-257 > 100 µM

CC1CCP(=O)(c2ccccc2)c2ccccc21 (stereo not given)
inactive: HCT-116 23 µM | NCI-H522 43.6 µM | OVCAR-5 > 100 µM | MOLT-4 30.8 µM | SK-OV-3 > 100 µM | TK-10 > 100 µM | K562 25.1 µM | HL-60 19.6 µM | ACHN 42.5 µM | KM12 > 100 µM | HOP-62 78.7 µM | Malme-3M > 100 µM | LOX IMVI 24.3 µM | RXF 393 > 100 µM | OVCAR-8 41.6 µM | UACC-257 65.9 µM

COC(=O)C1=C(C(=O)OC)SC(=CC#CC=C2SC(C(=O)OC)=C(C(=O)OC)S2)S1
inactive: HCT-116 11.7 µM | NCI-H522 24.4 µM | OVCAR-5 > 90.6 µM | MOLT-4 > 100 µM | SK-OV-3 16.5 µM | CAKI-1 25.5 µM | TK-10 9.06 µM | K562 > 87.5 µM | HL-60 > 100 µM | ACHN 11.8 µM | KM12 > 54.6 µM | HOP-62 3.96 µM | Malme-3M 15.7 µM | LOX IMVI 9.71 µM | OVCAR-8 5.04 µM | HOP-92 16.2 µM | UACC-257 > 54.3 µM

Cc1cc2c(cc1Br)C1(C)CCC(C)C1(C)O2 (stereo not given)
inactive: HCT-116 14 µM | OVCAR-5 23.8 µM | MOLT-4 17.9 µM | SK-OV-3 53.3 µM | CAKI-1 56 µM | TK-10 > 100 µM | K562 17.3 µM | HL-60 13.4 µM | ACHN 31.2 µM | KM12 31.6 µM | HOP-62 30.3 µM | Malme-3M 16.9 µM | LOX IMVI 18.6 µM | RXF 393 15.7 µM | OVCAR-8 29.6 µM | HOP-92 20.9 µM | UACC-257 30.5 µM

O=C1c2ccoc2C(=O)c2oc(=O)ccc21
inactive: HCT-116 5.31 µM | NCI-H522 1.86 µM | OVCAR-5 19.7 µM | SK-OV-3 30.1 µM | CAKI-1 > 45 µM | TK-10 > 45.1 µM | K562 6.46 µM | HL-60 2.32 µM | ACHN 2.86 µM | KM12 > 42 µM | HOP-62 > 46.1 µM | Malme-3M 3.16 µM | LOX IMVI 2.88 µM | RXF 393 5.86 µM | OVCAR-8 6.35 µM | HOP-92 21.6 µM | UACC-257 7.33 µM

N/N=C1\C(=O)N(CCc2ccccc2)C(=O)C1C(=O)NCCc1ccccc1 (stereo not given)
inactive: HCT-116 > 100 µM | NCI-H522 > 100 µM | MOLT-4 > 100 µM | SK-OV-3 > 100 µM | CAKI-1 > 100 µM | TK-10 > 100 µM | K562 > 100 µM | HL-60 > 100 µM | ACHN > 100 µM | KM12 > 100 µM | Malme-3M > 100 µM | LOX IMVI > 100 µM | HOP-92 > 100 µM | UACC-257 > 100 µM

CC(C)OP(=O)(NC(=S)c1ccccc1)OC(C)C
inactive: HCT-116 > 100 µM | OVCAR-5 > 100 µM | MOLT-4 80.7 µM | SK-OV-3 > 100 µM | CAKI-1 > 100 µM | TK-10 > 100 µM | K562 > 100 µM | ACHN > 100 µM | KM12 > 100 µM | Malme-3M > 100 µM | LOX IMVI > 100 µM | OVCAR-8 > 100 µM | HOP-92 > 100 µM | UACC-257 > 100 µM

N#C/N=C(/NCCc1c[nH]c2ccccc12)Oc1ccccc1
inactive: HCT-116 52.5 µM | OVCAR-5 > 100 µM | MOLT-4 37.1 µM | SK-OV-3 > 100 µM | TK-10 84.5 µM | K562 26.8 µM | HL-60 21.6 µM | ACHN 27.4 µM | KM12 40.8 µM | HOP-62 > 100 µM | LOX IMVI 77.4 µM | RXF 393 > 100 µM | OVCAR-8 > 100 µM | UACC-257 > 100 µM

COC(=O)c1cc(O)ccc1NC(=O)c1ccc(O)cc1
inactive: HCT-116 > 100 µM | NCI-H522 41.4 µM | OVCAR-5 > 100 µM | MOLT-4 > 100 µM | SK-OV-3 > 100 µM | CAKI-1 79.4 µM | TK-10 82.2 µM | K562 > 100 µM | HL-60 > 100 µM | ACHN > 100 µM | KM12 > 100 µM | HOP-62 > 100 µM | Malme-3M > 100 µM | LOX IMVI > 100 µM | OVCAR-8 > 100 µM | HOP-92 87.7 µM | UACC-257 > 100 µM

CCC(=O)C1=C(OC(C)=O)C2Cc3c(n(C)c4ccccc34)C(C1)N2C (stereo not given)
inactive: HCT-116 29.9 µM | NCI-H522 15.3 µM | OVCAR-5 > 100 µM | MOLT-4 34.7 µM | SK-OV-3 > 100 µM | CAKI-1 33.7 µM | TK-10 66.1 µM | K562 33.3 µM | HL-60 21.6 µM | ACHN 27.3 µM | KM12 45.9 µM | Malme-3M 48.6 µM | LOX IMVI 40.5 µM | OVCAR-8 18.9 µM | HOP-92 67 µM | UACC-257 24.5 µM

CCOC1c2nc3ccccc3nc2-c2ccccc2N1C(C)=O (stereo not given)
inactive: HCT-116 > 100 µM | MOLT-4 > 100 µM | SK-OV-3 > 100 µM | CAKI-1 > 100 µM | K562 83 µM | HL-60 > 100 µM | ACHN > 100 µM | KM12 > 100 µM | HOP-62 > 100 µM | RXF 393 28.3 µM | OVCAR-8 48.2 µM | HOP-92 29.2 µM | UACC-257 > 100 µM

CC(C)c1cccc(C(C)C)c1NC(=S)NN=C1C=C(C(C)(C)C)C(=O)C(C(C)(C)C)=C1
inactive: HCT-116 3.59 µM | MOLT-4 28.7 µM | TK-10 30.4 µM | K562 23.3 µM | HL-60 26.1 µM | ACHN 34.4 µM | HOP-62 16.5 µM | Malme-3M 27.3 µM | LOX IMVI 18.2 µM | RXF 393 16.7 µM | OVCAR-8 17.8 µM | UACC-257 18.9 µM

COc1cc2c(cc1OC)-c1cc3cc(OC)c(OC)cc3n1CC2
inactive: HCT-116 32.4 µM | NCI-H522 32.5 µM | OVCAR-5 > 100 µM | MOLT-4 > 100 µM | SK-OV-3 30.5 µM | CAKI-1 55.7 µM | TK-10 19.9 µM | K562 26.3 µM | HL-60 > 100 µM | ACHN 31.6 µM | KM12 38.5 µM | HOP-62 31.6 µM | Malme-3M 23.8 µM | OVCAR-8 24.1 µM | HOP-92 60.3 µM | UACC-257 56 µM
